In PubChem BioAssay AID330 (DTP/NCI, 2004):
Where “and” joins values, the source holds several entries; their conditions need not be identical. Identical values can stand only once. Inconclusive results and toxic doses are left out.

Tested on: P388 leukemia ip, CD2F1 mice, survival T/C
Assay: NCI In Vivo Anticancer Drug Screen. Data for tumor model P388 Leukemia (intraperitoneal) in CD2F1 (CDF1) mice
Conditions: endpoint: median survival time, higher = longer survival
In short: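 Mice carrying the transplanted tumor received test compound or vehicle. Survival was recorded in each group, and the value is the treated-group measurement divided by that of the vehicle-treated control group.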

[1] = dose: 50.0 mg/kg/injection, schedule: Q01DX009 (ip), vehicle: saline
[2] = dose: 100.0 mg/kg/injection, schedule: Q01DX009 (ip), vehicle: saline
[3] = dose: 200.0 mg/kg/injection, schedule: Q01DX009 (ip), vehicle: saline
[4] = dose: 100.0 mg/kg/injection, schedule: Q01DX009 (ip), vehicle: saline with Tween-80
[5] = dose: 200.0 mg/kg/injection, schedule: Q01DX009 (ip), vehicle: saline with Tween-80
[6] = dose: 400.0 mg/kg/injection, schedule: Q01DX009 (ip), vehicle: saline with Tween-80
[7] = dose: 50.0 mg/kg/injection, schedule: Q01DX009 (ip), vehicle: saline with Tween-80
[8] = dose: 60.0 mg/kg/injection, schedule: Q01DX005 (ip), vehicle: saline with Tween-80
[9] = dose: 120.0 mg/kg/injection, schedule: Q01DX005 (ip), vehicle: saline with Tween-80
[10] = dose: 240.0 mg/kg/injection, schedule: Q01DX005 (ip), vehicle: saline with Tween-80
[11] = dose: 50.0 mg/kg/injection, schedule: Q01DX009 (ip), vehicle: Klucel (hydroxypropylcellulose) (HPC)
[12] = dose: 100.0 mg/kg/injection, schedule: Q01DX009 (ip), vehicle: Klucel (hydroxypropylcellulose) (HPC)
[13] = dose: 200.0 mg/kg/injection, schedule: Q01DX009 (ip), vehicle: Klucel (hydroxypropylcellulose) (HPC)
[14] = dose: 12.5 mg/kg/injection, schedule: Q01DX009 (ip), vehicle: saline with Tween-80
[15] = dose: 25.0 mg/kg/injection, schedule: Q01DX009 (ip), vehicle: saline with Tween-80
[16] = dose: 30.0 mg/kg/injection, schedule: Q01DX005 (ip), vehicle: saline
[17] = dose: 60.0 mg/kg/injection, schedule: Q01DX005 (ip), vehicle: saline
[18] = dose: 50.0 mg/kg/injection, schedule: Q01DX005 (ip), vehicle: Klucel (hydroxypropylcellulose) (HPC)
[19] = dose: 100.0 mg/kg/injection, schedule: Q01DX005 (ip), vehicle: Klucel (hydroxypropylcellulose) (HPC)
[20] = dose: 200.0 mg/kg/injection, schedule: Q01DX005 (ip), vehicle: Klucel (hydroxypropylcellulose) (HPC)
[21] = dose: 6.25 mg/kg/injection, schedule: Q01DX009 (ip), vehicle: saline with Tween-80

In the case of `O=S1CCS(=O)C1c1ccccc1` (stereo not given), the T/C (dose: 50.0 mg/kg/injection, schedule: Q01DX005 (ip), vehicle: other) is reported as 99 % of control and the T/C (dose: 100.0 mg/kg/injection, schedule: Q01DX005 (ip), vehicle: other) is reported as 103 % of control.
`NC(CCCCNCC(N)C(=O)O)C(=O)O` (stereo not given) was tested, and the T/C [1] was 91 % of control, the T/C [2] was 89 % of control and the T/C [3] was 92 % of control.
In the case of `CNS(=O)(=O)c1ccc2c(c1)[nH]c(=S)n2C`, the T/C [4] is reported as 95 % of control, the T/C [5] is reported as 90 % of control and the T/C [6] is reported as 90 % of control.
`Cc1ccc(NC(=O)Oc2ccc(Cl)cc2)c([N+](=O)[O-])c1` was tested, and the T/C [7] was 109 % of control, the T/C [4] was 100 % of control and the T/C [5] was 105 % of control.
`CCCCCCCCCC(O)(CSc1ccccc1)CSc1ccccc1` was tested, and the T/C [7] was 99 % of control, the T/C [4] was 100 % of control and the T/C [5] was 114 % of control.
For `CC(C)OCc1cn[nH]n1`, the T/C [8] was 100 % of control, the T/C [9] was 97 % of control and the T/C [10] was 103 % of control.
In the case of `O=C1OCCOCCOCCOCCOCCOC(=O)C1c1ccccc1`, the T/C [11] is reported as 102 % of control, the T/C [12] is reported as 101 % of control and the T/C [13] is reported as 100 % of control.
In the case of `CSC(=CC(=O)c1ccccc1)SC`, the T/C [14] is reported as 104 % of control, the T/C [15] is reported as 105 % of control and the T/C [7] is reported as 114 % of control. The T/C [4] was 110 % of control.
In the case of `FC(F)(F)SN1COCN(SC(F)(F)F)C1`, the T/C [16] is reported as 96 % of control, the T/C [17] is reported as 100 % of control and the T/C (dose: 120.0 mg/kg/injection, schedule: Q01DX005 (ip), vehicle: saline) is reported as 99 % of control and 102 % of control.
`CP(=O)(c1ccccc1)c1ccccc1OCCCOCCCOc1ccccc1P(C)(=O)c1ccccc1` (stereo not given) was tested, and the T/C [18] was 99 % of control, the T/C [19] was 99 % of control and the T/C [20] was 94 % of control.
For `CCOC(=O)Cn1c(=S)sc2ccccc21`, the T/C [15] was 91 % of control, the T/C [7] was 89 % of control and the T/C [4] was 99 % of control. For the same molecule, the T/C [5] was 91 % of control.
For `Cc1c(-c2ccc(C3CCCCC3)cc2)nc2ccc(F)cc2c1C(=O)O`, the T/C (dose: 3.12 mg/kg/injection, schedule: Q01DX005 (ip), vehicle: Klucel (hydroxypropylcellulose) (HPC)) was 104 % of control, the T/C (dose: 6.25 mg/kg/injection, schedule: Q01DX005 (ip), vehicle: Klucel (hydroxypropylcellulose) (HPC)) was 99 % of control and the T/C (dose: 12.5 mg/kg/injection, schedule: Q01DX005 (ip), vehicle: Klucel (hydroxypropylcellulose) (HPC)) was 110 % of control. For the same molecule, the T/C (dose: 25.0 mg/kg/injection, schedule: Q01DX005 (ip), vehicle: Klucel (hydroxypropylcellulose) (HPC)) was 99 % of control.
For `N#CC(C#N)=C1Cc2ccccc2C1`, the T/C (dose: 25.0 mg/kg/injection, schedule: Q01DX001 (ip), vehicle: saline with Tween-80) was 109 % of control and the T/C (dose: 50.0 mg/kg/injection, schedule: Q01DX001 (ip), vehicle: saline with Tween-80) was 100 % of control.
`O=C(Nc1ccccc1)c1ccco1` was tested, and the T/C (dose: 100.0 mg/kg/injection, schedule: Q01DX001 (ip), vehicle: Klucel (hydroxypropylcellulose) (HPC)) was 106 % of control, the T/C (dose: 200.0 mg/kg/injection, schedule: Q01DX001 (ip), vehicle: Klucel (hydroxypropylcellulose) (HPC)) was 102 % of control and the T/C (dose: 400.0 mg/kg/injection, schedule: Q01DX001 (ip), vehicle: Klucel (hydroxypropylcellulose) (HPC)) was 96 % of control.
For `CNCCc1c(C2C3C(C=C(C)CC3(C)C)c3c(CCNC)c4ccccc4n32)[nH]c2ccccc12` (stereo not given), the T/C (dose: 4.0 mg/kg/injection, schedule: Q01DX009 (ip), vehicle: saline) was 107 % of control, the T/C (dose: 8.0 mg/kg/injection, schedule: Q01DX009 (ip), vehicle: saline) was 110 % of control and the T/C (dose: 16.0 mg/kg/injection, schedule: Q01DX009 (ip), vehicle: saline) was 115 % of control. For the same molecule, the T/C (dose: 32.0 mg/kg/injection, schedule: Q01DX009 (ip), vehicle: saline) was 114 % of control.
For `c1cncc(CNCc2cccnc2)c1`, the T/C (dose: 25.0 mg/kg/injection, schedule: Q01DX009 (ip), vehicle: saline) was 94 % of control, the T/C [1] was 110 % of control and the T/C [2] was 97 % of control. The T/C [3] was 94 % of control.
`CCN(CC)CCO/N=C1\CC(c2ccc(OC)c(OC)c2)Oc2ccccc21` (stereo not given) was tested, and the T/C (dose: 15.0 mg/kg/injection, schedule: Q01DX005 (ip), vehicle: saline) was 100 % of control, the T/C [16] was 114 % of control and the T/C [17] was 100 % of control and 105 % of control.
With `Nc1ncnc2c1c1c(=S)nc[nH]c1n2C1OC(CO)C(O)C1O` (stereo not given) the T/C (dose: 25.0 mg/kg/injection, schedule: Q01DX009 (ip), vehicle: water) was 158 % of control, the T/C (dose: 50.0 mg/kg/injection, schedule: Q01DX009 (ip), vehicle: water) was 165 % of control and the T/C (dose: 100.0 mg/kg/injection, schedule: Q01DX009 (ip), vehicle: water) was 177 % of control.
In the case of `NC1(C(=O)O)CCc2ccccc2C1` (stereo not given), the T/C [18] is reported as 104 % of control, the T/C [19] is reported as 102 % of control and the T/C [20] is reported as 100 % of control.
In the case of `c1ccc(Nc2nn[nH]n2)cc1`, the T/C [18] is reported as 109 % of control, the T/C [19] is reported as 107 % of control and the T/C [20] is reported as 109 % of control.
`CC(O)C(NC(=O)c1cnc(OCc2ccccc2)nc1N)C(=O)O` (stereo not given) was tested, and the T/C [21] was 100 % of control, the T/C [14] was 100 % of control and the T/C [15] was 90 % of control.
For `CC(C)CC([NH-])C(=O)O.[C-]#[O+].[C-]#[O+].[Rh]` (stereo not given), the T/C [21] was 113 % of control, the T/C [14] was 115 % of control and the T/C [15] was 109 % of control.
For `COC(=O)C1CCC2c3ccccc3C(C1)c1ccccc12` (stereo not given), the T/C [4] was 90 % of control, the T/C (dose: 100.0 mg/kg/injection, schedule: Q04DX003 (ip), vehicle: saline with Tween-80) was 90 % of control and the T/C [5] was 118 % of control. The T/C (dose: 200.0 mg/kg/injection, schedule: Q04DX003 (ip), vehicle: saline with Tween-80) was 100 % of control, the T/C [6] was 118 % of control and the T/C (dose: 400.0 mg/kg/injection, schedule: Q04DX003 (ip), vehicle: saline with Tween-80) was 100 % of control.
For `COC1C(=O)c2ccccc2N1C(C)=O` (stereo not given), the T/C (dose: 60.0 mg/kg/injection, schedule: Q01DX005 (ip), vehicle: Klucel (hydroxypropylcellulose) (HPC)) was 108 % of control, the T/C (dose: 120.0 mg/kg/injection, schedule: Q01DX005 (ip), vehicle: Klucel (hydroxypropylcellulose) (HPC)) was 101 % of control and the T/C (dose: 240.0 mg/kg/injection, schedule: Q01DX005 (ip), vehicle: Klucel (hydroxypropylcellulose) (HPC)) was 99 % of control.
With `CCN(CC)c1ccc2c(C)cc(=O)oc2c1` the T/C (dose: 25.0 mg/kg/injection, schedule: Q04DX003 (ip), vehicle: DMSO) was 92 % of control and the T/C (dose: 50.0 mg/kg/injection, schedule: Q04DX003 (ip), vehicle: DMSO) was 88 % of control.
In the case of `Clc1ccc(NC2=NCCS2)cc1Cl`, the T/C [11] is reported as 103 % of control, the T/C [12] is reported as 92 % of control and the T/C [13] is reported as 101 % of control.
`COc1ccc2c(c1OC)Oc1c(OC)ccc3c1C(C2)N(C)C[C@@H]3O` (stereo not given in full) was tested, and the T/C (dose: 5.75 mg/kg/injection, schedule: Q01DX005 (ip), vehicle: Klucel (hydroxypropylcellulose) (HPC)) was 103 % of control, the T/C (dose: 11.5 mg/kg/injection, schedule: Q01DX005 (ip), vehicle: Klucel (hydroxypropylcellulose) (HPC)) was 109 % of control and the T/C (dose: 23.0 mg/kg/injection, schedule: Q01DX005 (ip), vehicle: Klucel (hydroxypropylcellulose) (HPC)) was 100 % of control. The T/C (dose: 46.0 mg/kg/injection, schedule: Q01DX005 (ip), vehicle: Klucel (hydroxypropylcellulose) (HPC)) was 99 % of control.
In the case of `Cc1cccc(/C=C/c2csnn2)n1`, the T/C [8] is reported as 105 % of control, the T/C [9] is reported as 104 % of control and the T/C [10] is reported as 96 % of control.
In the case of `CC1(C)CC(OP(=O)(N(CCCl)CCCl)N2CC2)CC(C)(C)N1O` (stereo not given), the T/C (dose: 13.0 mg/kg/injection, schedule: Q01DX009 (ip), vehicle: saline + alcohol) is reported as 102 % of control, the T/C (dose: 25.0 mg/kg/injection, schedule: Q01DX009 (ip), vehicle: saline + alcohol) is reported as 102 % of control and the T/C (dose: 50.0 mg/kg/injection, schedule: Q01DX009 (ip), vehicle: saline + alcohol) is reported as 114 % of control.
`CSc1nnc2n(N)cnn12` was tested, and the T/C (dose: 100.0 mg/kg/injection, schedule: Q04DX002 (ip), vehicle: water) was 107 % of control, the T/C (dose: 200.0 mg/kg/injection, schedule: Q04DX002 (ip), vehicle: water) was 106 % of control and the T/C (dose: 400.0 mg/kg/injection, schedule: Q04DX002 (ip), vehicle: water) was 106 % of control.
For `Nc1ccc(S(=O)(=O)Nc2ccccc2-c2nc(N)nc(N)n2)cc1`, the T/C [7] was 98 % of control, the T/C [4] was 97 % of control and the T/C [5] was 94 % of control. For the same molecule, the T/C [6] was 101 % of control.
